The target in this assay is DNA gyrase A/A/B/B tetramer (Escherichia coli (strain K12), UniProt P0AES4+P0AES6). Briefly: DNA Gyrase ATPase Assay.
Broadly, the Ki is the dissociation constant of the complex between target and ligand, obtained from inhibition or displacement. Take `CCNC(=O)Nc1nc2cc(-n3cnc(C(=O)NC4CC4)c3)c(F)cc2[nH]1` [N-cyclopropyl-1-{2-[(ethylcarbamoyl)amino]-6-fluoro-1H-1,3-benzodiazol-5-yl}-1H-imidazole-4-carboxamide]: the Ki is less than 4 nM.
As to `CCNC(=O)Nc1nc2c(-n3cccn3)cc(-c3cncnc3)cc2[nH]1` [3-ethyl-1-[7-(1H-pyrazol-1-yl)-5-(pyrimidin-5-yl)-1H-1,3-benzodiazol-2-yl]urea], the Ki was less than 4 nM.
The compound `CCNC(=O)Nc1nc2cc(-c3cccnc3)cc(-c3ccccn3)c2[nH]1` [3-ethyl-1-[7-(pyridin-2-yl)-5-(pyridin-3-yl)-1H-1,3-benzodiazol-2-yl]urea] yielded a Ki of less than 4 nM.
Regarding `CCNC(=O)Nc1nc2cc(-c3cccnc3)cc(C(=O)OC)c2[nH]1` [methyl 2-[(ethylcarbamoyl)amino]-5-(pyridin-3-yl)-1H-1,3-benzodiazole-7-carboxylate], the Ki was less than 4 nM.
The compound `CCNC(=O)Nc1nc2c(-n3cccn3)cc(-c3cccnc3)cc2[nH]1` [3-ethyl-1-[7-(1H-pyrazol-1-yl)-5-(pyridin-3-yl)-1H-1,3-benzodiazol-2-yl]urea] displayed a Ki of less than 4 nM.
`CCNC(=O)Nc1nc2cc(-c3cccnc3)cc(-c3ncccc3F)c2[nH]1` [3-ethyl-1-[7-(3-fluoropyridin-2-yl)-5-(pyridin-3-yl)-1H-1,3-benzodiazol-2-yl]urea]: the Ki was less than 4 nM.
The compound `CCNC(=O)Nc1nc2c(-n3cccn3)cc(-n3cnc(C(=O)NC4CC4)c3)cc2[nH]1` [N-cyclopropyl-1-{2-[(ethylcarbamoyl)amino]-7-(1H-pyrazol-1-yl)-1H-1,3-benzodiazol-5-yl}-1H-imidazole-4-carboxamide] registered a Ki of less than 4 nM.
As for `CCNC(=O)Nc1nc2c(-c3ccccn3)cc(-n3cnc(C(=O)NC4CC4)c3)cc2[nH]1` [N-cyclopropyl-1-{2-[(ethylcarbamoyl)amino]-7-(pyridin-2-yl)-1H-1,3-benzodiazol-5-yl}-1H-imidazole-4-carboxamide], the figure is less than 4 nM; as for `CCNC(=O)Nc1nc2cc(-c3ccn(C)c(=O)c3)cc(-c3ncccc3F)c2[nH]1` [3-ethyl-1-[7-(3-fluoropyridin-2-yl)-5-(1-methyl-2-oxo-1,2-dihydropyridin-4-yl)-1H-1,3-benzodiazol-2-yl]urea], less than 4 nM.

The record behind these values is BindingDB's records for doi:10.1021/jm800318d (Vertex Pharmaceuticals, 2008).
